According to patent publication US7585867B2, “Substituted thiazolo[4,5-d]pyrimidin-2(3H)-one” (AstraZeneca AB, priority 2002, dated 2009):
pIC50: −log10 of the molar value.

How the values were obtained:
[1] = biological target: T1, hrCXCR2 (Homo sapiens, UniProt P25025); assay: Ligand binding assay ([125I]IL-8, HEK 293 membranes); settings: displacement of ~50 pM [125I]IL-8 from membranes of HEK 293 cells expressing hrCXCR2, 1.5 hours at room temperature
T1 construct: expressed in transfected cells; host or cells: HEK 293 cells (ECACC No. 85120602), membrane preparation
T1 sequence (P25025 1-360): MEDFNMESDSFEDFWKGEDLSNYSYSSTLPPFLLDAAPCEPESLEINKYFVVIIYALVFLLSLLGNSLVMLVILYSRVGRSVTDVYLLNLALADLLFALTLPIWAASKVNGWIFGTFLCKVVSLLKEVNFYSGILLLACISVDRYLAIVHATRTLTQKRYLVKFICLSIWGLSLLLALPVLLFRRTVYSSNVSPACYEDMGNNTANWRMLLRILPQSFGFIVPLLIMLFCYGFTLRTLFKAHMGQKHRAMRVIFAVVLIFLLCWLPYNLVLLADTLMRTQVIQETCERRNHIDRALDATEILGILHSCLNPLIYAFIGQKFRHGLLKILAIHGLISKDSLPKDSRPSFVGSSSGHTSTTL
From the text: [^125I]IL-8 (human, recombinant) was purchased from Amersham, U.K. with a specific activity of 2,000 Ci/mmol. All other chemicals were of analytical grade. High levels of hrCXCR2 were expressed in HEK 293 cells (human embryo kidney 293 cells ECACC No. 85120602) (Lee et al. (1992) J. Biol. Chem. 267 pp 16283-16291). hrCXC2 cDNA was amplified and cloned from human neutrophil mRNA. The DNA was cloned into PCRScript (Stratagene) and clones were identified using DNA. The coding sequence was sub-cloned into the eukaryotic expression vector RcCMV (Invitrogen). Plasmid DNA was prepared using Quiagen Megaprep 2500 and transfected into HEK 293 cells using Lipofectamine reagent (Gibco BRL). Cells of the highest expressing clone were harvested in phosphate-buffered saline containing 0.2%(w/v) ethylenediaminetetraacetic acid (EDTA) and centrifuged (200 g, 5 min.). The cell pellet was resuspended in ice cold homogenisation buffer [10 mM HEPES (pH 7.4), 1 mM dithiothreitol, 1 mM EDTA and a panel of protease inhibitors (1 mM phenyl methyl sulphonyl fluoride, 2 μg/ml soybean trypsin inhibitor, 3 mM benzamidine, 0.5 μg/ml leupeptin and 100 μg/ml bacitracin)] and the cells left to swell for 10 minutes. […] The backing plate was removed from the MultiScreen plate assembly, the filters dried at room temperature, punched out and then counted on a Cobra γ-counter.

[2] = biological target: T2, CXCR2 receptor in human neutrophils (Homo sapiens, UniProt P25025); assay: Intracellular calcium mobilisation assay (GROα, fluo-3, FLIPR); type: cell-based; settings: A50 concentration of GROα, fluo-3 fluorescence
T2 construct: Human nutrophils were prepared from EDTA-treated peripheral blood; endogenous in cells; host or cells: human neutrophils from peripheral blood
T2 sequence (P25025 1-360): T1 sequence (P25025 1-360)
Experimental: Intracellular Calcium Mobilisation Assay
Human nutrophils were prepared from EDTA-treated peripheral blood, as previously described (Baly et al. (1997) Methods in Enzymology 287 pp 70-72), in storage buffer [Tyrode's salt solution (137 mM NaCl, 2.7 mM KCl, 0.4 mM NaH2PO4) supplemented with 5.7 mM glucose and 10 mM HEPES (pH 7.4)].
The chemokine GROα (human, recombinant) was purchased from R&D Systems (Abingdon, U.K.). All other chemicals were of analytical grade. Changes in intracellular free calcium were measured fluorometrically by loading neutrophils with the calcium sensitive fluorescent dye, fluo-3, as described previously (Merritt et al. (1990) Biochem. J. 269, pp513-519). Cells were loaded for 1 hour at 37° C. in loading buffer (storage buffer with 0.1% (w/v) gelatin) containing 5 μM fluo-3 AM ester, washed with loading buffer and then resuspended in Tyrode's salt solution supplemented with 5.7 mM glucose, 0.1% (w/v) bovine serum albumin (BSA), 1.8 mM CaCl2 and 1 mM MgCl2. […]
A compound of formula (I) according to the Examples was pre-dissolved in DMSO and added to a final concentration of 0.1% (v/v) DMSO. Assays were initiated by the addition of an A50 concentration of GROα and the transient increase in fluo-3 fluorescence (λEx=490 nm and λEm=520 nm) monitored using a FLIPR (Fluorometric Imaging Plate Reader, Molecular Devices, Sunnyvale, U.S.A.). […]

Row | pIC50 [1] | antagonism of GROα-induced intracellular calcium increase [2] | melting point | Compound
1 | > 5.00 | antagonist | 230 to 233 °C | CC(CO)(CO)Nc1nc(SCc2cccc(F)c2F)nc2[nH]c(=O)sc12 [compound of formula (I), 5-[[(2,3-Difluorophenyl)methyl]thio]-7-[[2-hydroxy-1-(hydroxymethyl) 1 methylethyl]amino]-thiazolo[4,5-d]pyrimidin-2(3H)-one]
2 | – | – | 238 °C (dec.) | CC(CO)(CO)Nc1nc(SCc2cccc(F)c2F)nc2[nH]c(=O)sc12.[Na]
